The text below walks through data of article PMC11932996, “aac(6’)-Iaq, a novel aminoglycoside acetyltransferase gene identified from an animal isolate Brucella intermedia DW0551” (Frontiers in Cellular and Infection Microbiology, 2025).

The assay relates to AAC(6’)-Iaq. It is filed as biochemical, Brucella intermedia.

In general, Km refers to the concentration of substrate that gives half-maximal velocity. For the molecule `NC[C@H]1O[C@H](O[C@H]2[C@H](O)[C@@H](O[C@H]3O[C@H](CO)[C@@H](O)[C@H](N)[C@H]3O)[C@H](N)C[C@@H]2N)[C@H](O)[C@@H](O)[C@@H]1O` [kanamycin], the Km turned out to be 13.3 ± 9.07 µM.
With `NCC[C@H](O)C(=O)N[C@@H]1C[C@H](N)[C@@H](O[C@H]2O[C@H](CN)[C@@H](O)[C@H](O)[C@H]2O)[C@H](O)[C@H]1O[C@H]1O[C@H](CO)[C@@H](O)[C@H](N)[C@H]1O` [amikacin] the figure was 14.1 ± 0.76 µM; with `CCN[C@@H]1C[C@H](N)[C@@H](O[C@H]2OC(CN)=CC[C@H]2N)[C@H](O)[C@H]1O[C@H]1OC[C@](C)(O)[C@H](NC)[C@H]1O` [netilmicin], 3.83 ± 0.34 µM.
The same measure for `CN[C@@H]1[C@@H](O)[C@@H](O[C@@H]2[C@@H](O)[C@H](O[C@H]3OC(CN)=CC[C@H]3N)[C@@H](N)C[C@H]2N)OC[C@]1(C)O` [sisomicin]: 4.33 ± 1.32 µM; for `NC[C@H]1O[C@H](O[C@H]2[C@H](O[C@@H]3O[C@H](CO)[C@@H](O)[C@H]3O)[C@@H](O)[C@H](N)C[C@@H]2N)[C@H](N)[C@@H](O)[C@@H]1O` [ribostamycin]: 10.1 ± 2.45 µM.
